Data: patent US20150030706A1, “USE OF ESSENTIAL OILS, SUPERCRITICAL EXTRACTS AND AQUEOUS RESIDUES GENERATED DURING A PROCESS FOR OBTAINING ORGANIC EXTRACTS FROM THE ARTEMISIA ABSINTHIUM L. PLANT” (CONSEJO SUPERIOR DE INVESTIGACIONES CIENTIFICAS (CSIC), priority 2012, published 2015)

Test system: Meloidogyne javanica
Assay: Nematicide activity against infective juveniles (J2)
Assay type: in vivo
Procedure: The assays were carried out according to the methodology described for Meloidogyne sp (Hernández-Carlos et al. 2011, Sosa et al. 2012) using the biological stage of infected juvenile (J2) Meloidogyne javanica in the assays. The activity of each product was quantified at different concentrations, shown in Table 5 and in at least four copies, each bio-assay was repeated at least three times and the nematostatic/nematicide activity was determined from the percentage of infected juvenile plants immobilised/which died.

Compound: C=C/C(C)=C\CC(O)C(C)(C)O (stereo not shown) [(Z)-2,6-dimethylocta-5,7-diene-2,3-diol]
- M. javanica % J2 immobilised Average (Concentration 0.02 μg/μl): 4.2%
- M. javanica % J2 immobilised Average (Concentration 0.1 μg/μl): 19.7%
- M. javanica % J2 immobilised Average (Concentration 0.25 μg/μl): 43.9%
- M. javanica % J2 immobilised Average (Concentration 0.5 μg/μl): 100%
